Test results from patent US6429291B1, “Hyaluronan receptor protein” (priority 1994, dated 2002).

Experiments:
[1] = tested on: C3 cells; assay: Experimental metastasis assay of treated C3 cells (tail vein); type: in vivo, syngeneic C3H/HeN mice
Experimental: C3 cells were serum starved, then cultured in presence of serum and GST or GST-HM for 48-hours and released from the substratum in Hanks. For assessing the tumorigenicity of the treated cells, 3×10^5 viable cells were injected subcutaneously into the right hind leg of syngeneic C3H/HeN Mice. The mice were maintained for 6-8 weeks after which tumors were removed, weighed and pieces processed for histology using conventional paraffin embedding techniques. […] The mice were maintained for 16-18 days, euthanased and their lungs were stained by Boulin solution (picric acid, formaldehyde and acetic acid [15:5.:1]), removed and metastatic foci were counted under dissecting microscope.

[2] = tested on: p34^cdc2; assay: Western blot of p34^cdc2 protein expression; type: cell-based, murine
Experimental: For Western blot analysis, C3 cells in 100 mm dishes were washed 2× in PBS and then lysed in 0.25 ml ice cold buffer containing 50 mM β-glycerophosphate (pH 7.3), 1% Nonidet p-40, 10 mM NaF, 1% aprotinin and 1 mM Sodium Vanadate. The lysates were centrifused at 30,000 g for 20 min at 4° C. Protein concentration was determined by Biorad protein assay kit. Proteins were resolved on 10% SDS-polyacrylamide gels and transferred to nitrocellulose membranes in a Tris-Cl buffer containing 25 mM Tris, 192 mM Glycine and 20% (v/v) methanol, pH 8.3 at 100V for 1 hour at 4° C. Filters were incubated with antibody to p34^cdc2 (1:5000 dilution of polyclonal rabbits antiserum raised against the C-terminal peptide (LDNQIKKM) (SEQ ID NO:58) of Human […] protein) and developed with horseradish peroxidase-conjugated goat antibody to rabbit immunoglobulin G (sigma). Blotting was visualized by enhanced chomilumineacence Western blotting system (Amersham) following manufacturer's instruction.

[3] = tested on: C3 fibroblasts; assay: Cell locomotion assay, timelapse image analysis of C3 fibroblasts; type: cell-based, murine
Experimental: For motility experiments, 10^5 cells were subcultured into 25 cm^2 tissue culture flasks (Corning), and maintained for 12 h as above. The medium was then aspirated, cells were rinsed with Hanks Balanced Salt Solution (HBSS) (Gibco) and fresh, serum-free α-MEM containing 4.0 μg/ml transferrin (Gibco) and 2.0 μg/ml insulin (Sigma) (defined medium) was added to the flasks.
Cell locomotion was recorded using a computerized timelapse analysis system (Image 1, Universal Imaging Corporation, Westchester, Pa.) that measures nuclear displacement. During the filming period, cells were maintained at 37° C. in defined-media at physiological pH.
A 10 amino acid peptide corresponding to one of the HA binding domains of RHAMM, peptide^aa423-432 (Yang et al., 1993), was synthesised and added at various concentrations (0,0.1, 1.0, 5.0, 10.0 and 50.0 ng/ml) to 70% confluent C3 fibroblasts. Cell locomotion was monitored by image analysis for 2 h from the addition of the peptide. A scrambled peptide was used as control.
RHAMM-GST fusion protein prepared and purified as described in (b) above was added at concentrations of 1 pg/ml, 1 ng/ml, 1 μg/ml and 1 mg/ml to 70% confluent C3 cultures and cell locomotion was monitored by image analysis for 2 h from protein addition as described in Example 5.
For each experiment, 30 cells were tracked every 10 min for a 1 hr period.
RHAMM-GST fusion protein, as described in (d) above, and deleted/mutated RHAMM-GST fusion protein, as described in (h) above were added at 5 ng/ml to subconfluent cultures of C3 cells and cell locomotion was monitored by image analysis for 2 h from protein addition as described in Example 5.

[4] = HA binding transblot assay with biotinylated HA
Experimental: For the HA-binding assay, cell lysates were separated on SDS-PAGE, transblotted onto nitrocellulose membranes, then blots were incubated with biotinylated HA instead of primary antibody (Yang et al., 1993). Streptavidin-peroxidase conjugate (Sigma) was used as a second antibody, and blots were processed as above.

[5] = tested on: cdc2 mRNA; assay: cdc2 mRNA Northern blot, nuclear run-on and mRNA stability; type: cell-based, murine; details: actinomycin D 20 μg/ml for stability
Experimental: Total cellular RNA was extracted by a rapid RNA isolation method using Trizol reagent (GIBCO) as per manufacturer's instructions. For half-life measurements, transcription was inhibited by addition of 20 ug/ml actinomycin D. RNA was isolated at different times and analyzed for cdc2 gene expression. 20 ug of total cellular RNA was electrophoresed through 1% formamide-agarose gels and blotted onto Nytran membranes. The blots were prehybridized and probed with random primer 32p-labelled murine cdc2 cDNA (Paul Nurse). Loading of RNA was determined by probing with glyceraldehyde-3-phosphate dehyrogenase (GAPDH) cDNA. Autoradiography was done by Phosphoimager SF (Molecular Dynamics) using storage phosphor imaging.
Nuclear run-on assay was performed using 32P-labelled RNA to probe filter-bound cdc2 and GAPDH single strand cDNA inserts. Quantification of transcription was determined by scanning phosphor images using Multiquant software program (Molecular Dynamics).

[6] = tested on: C3 cells; assay: Tumorigenicity of treated C3 cells injected subcutaneously; type: in vivo, syngeneic C3H/HeN mice
Experimental: C3 cells were serum starved, then cultured in presence of serum and GST or GST-HM for 48-hours and released from the substratum in Hanks. For assessing the tumorigenicity of the treated cells, 3×10^5 viable cells were injected subcutaneously into the right hind leg of syngeneic C3H/HeN Mice. The mice were maintained for 6-8 weeks after which tumors were removed, weighed and pieces processed for histology using conventional paraffin embedding techniques. For experimental metastasis assays, 4×10^3 treated cells were injected into the tail vein of syngeneic C3H/HeN mice. The mice were maintained for 16-18 days, euthanased and their lungs were stained by Boulin solution (picric acid, formaldehyde and acetic acid [15:5.:1]), removed and metastatic foci were counted under dissecting microscope.

[7] = tested on: C3 cells; assay: Cell cycle analysis by flow cytometry; type: cell-based, murine; details: serum starved, then serum stimulated; 5 μg/ml GST-RHAMM
Experimental: For cell cycle analysis, cells of the ras-transformed fibroblast cell line C3 were harvested and fixed with 70% ethanol. The fixed cells were denatured by 2N HCl containing 0.5% Triton X-100 at RT for 30 min and then neutralized by treatment with 0.1 M Na2B4O7, pH 8.5. Total DNA content was detected by propidium iodide staining. The stained cells were analyzed by flow cytometry using a Coulter Electronics Inc. EPICS 753 cell sorter and PARA1 cell cycle analysis software.

[8] = tested on: C3 cells; assay: Growth analysis (cell density assay); type: cell-based, murine
Experimental: Cell density assay was carried out by seeding 5×10^4 cells in 60 mm dishes. Cells were cultured in DMEM supplemented with 10% FCS. At each point, cells were harvested by trypsinization and cell concentrations were determined by counting cells by trypan blue exclusion method.

[9] = treated cells that did form tumours

For “RHAMM-GST fusion protein: RHAMM II cDNA cloned into pGEX-2T and expressed as soluble glutathione S-transferase-RHAMM fusion protein”, the “Expt. Metastases, Frequency” value ([1]; i.v. injection of 4 × 10^5 treated cells) was 3/4, the “Expt. Metastases, No.” value ([1]; i.v. injection of 4 × 10^5 treated cells, lung foci) was under 10 and the “metastatic capability of C3 cells” value ([1]; pre-treatment of cells) was “greatly reduced the metastatic capability”. For the same substance, the “p34^cdc2 expression” value ([2]; 10 μg/ml) was “greatly reduced”, the “effect on p34^cdc2 expression” value ([2]; range of concentrations) was “dose dependent inhibition” and the “concentration at which cell locomotion was significantly inhibited” value ([3]; 70% confluent C3, 2 h) was at least 1 ng/mL. The “effect on cell locomotion” value ([3]; C3 fibroblasts, result in words) was “effective inhibitor of cell motility”, the reduction of locomotion ([3]; at 1 ng/ml, p<0.0001) was 40% and the reduction in locomotion ([3]; concentrations as low as 1 ng/ml) was 3.5 fold. For the same substance, the “binding to biotinylated HA” value [4] was “showed binding to biotinylated HA”, the “effect on cdc2 mRNA” value [5] was “degradation of cdc2 mRNA without alteration of transcription” and the “Tumorigenicity, Frequency” value ([6]; C3 cells treated 48 hours before s.c. injection of 3 × 10^5 cells) was 2/4. The “Tumorigenicity, Latency” value ([6]; s.c. injection of 3 × 10^5 treated cells) was 22 days, the Tumorigenicity, Tumor size Day 25 ([6]; s.c. injection of 3 × 10^5 treated cells, Day 25) was 90 ± 0.7 mm² and the “latency compared to controls” value [6, 9] was “increased”. The “ultimate tumour size compared to controls” value [6, 9] was “reduced”, the “reduction of incidence of tumours” value ([6]; treatment of C3 cells prior to inoculation) was 50% and the “effect on cell cycle” value [7] was “arrested and accumulated in G2/M phase”. The “effect on cell proliferation” value ([8]; 5 μg/ml GST-RHAMM) was “decrease in cell proliferation” and the “fate of treated cells” value ([8]; RHAMM-treated C3 cells) was “proceeded to cell death”.
